Laboratory results: patent US20020028938A1, “Prostaglandin endoperoxide H synthase biosynthesis inhibitors” (priority 1997, published 2002)

Assays:
[1] = tested on: air pouch prostaglandin biosynthesis (Cox-2); assay: Carrageenan induced air pouch prostaglandin biosynthesis model (CAP); type: in vivo, rat; conditions: 3 mpk, rat; for inhibition in vivo at 3 mg/kg: 4 h, read-out: CAP % Inhib. @ 3 mpk
Protocol: To compare the mean responses of the treatment groups, analysis of variance was applied. Percent inhibition values were determined by comparing the individual treatment mean values to the mean of the control group. Linear regression was used to estimate IC50's/ED50's in appropriate assays.
Carrageenan induced air pouch prostaglandin biosynthesis model (CAP) Air pouches are formed in the backs of male Sprague Dawley rats by injecting 20 mL of sterile air on day 0. Three days later the pouch was reinflated with an additional 10 mL of sterile air. On day 7, 1 mL of saline containing 0.2 % lambda carrageenan (Sigma Chemical Co.) is injected into the pouch to induce the inflammatory reaction that is characterized by the release of prostaglandins. Test compounds are dosed at 0.1 to 10 mg/kg 30 minutes prior to carrageenan. Four hours after the carrageenan injection the pouch is lavaged and levels of prostaglandins are determined by enzyme immuno-assay using commercially available kits. […] Values for Cox-2 inhibition that are parenthetical indicate ED50 values.

[2] = target: T1, recombinant human Cox-2 (r-hu Cox-2) (Homo sapiens, UniProt P35354); assay: Recombinant human PGHS-2 enzyme assay (RHUCX2); type: biochemical; conditions: for IC50: read-out: RHUCX2 IC50 (parenthetical value); for inhibition at 0.01 µM / inhibition at 0.1 µM / inhibition at 1 µM: read-out: RHUCX2 % Inh. at Dose
T1 construct: made in house; host or cells: baculovirus/Sf9 insect cells (microsomes)
T1 sequence (P35354 18-604): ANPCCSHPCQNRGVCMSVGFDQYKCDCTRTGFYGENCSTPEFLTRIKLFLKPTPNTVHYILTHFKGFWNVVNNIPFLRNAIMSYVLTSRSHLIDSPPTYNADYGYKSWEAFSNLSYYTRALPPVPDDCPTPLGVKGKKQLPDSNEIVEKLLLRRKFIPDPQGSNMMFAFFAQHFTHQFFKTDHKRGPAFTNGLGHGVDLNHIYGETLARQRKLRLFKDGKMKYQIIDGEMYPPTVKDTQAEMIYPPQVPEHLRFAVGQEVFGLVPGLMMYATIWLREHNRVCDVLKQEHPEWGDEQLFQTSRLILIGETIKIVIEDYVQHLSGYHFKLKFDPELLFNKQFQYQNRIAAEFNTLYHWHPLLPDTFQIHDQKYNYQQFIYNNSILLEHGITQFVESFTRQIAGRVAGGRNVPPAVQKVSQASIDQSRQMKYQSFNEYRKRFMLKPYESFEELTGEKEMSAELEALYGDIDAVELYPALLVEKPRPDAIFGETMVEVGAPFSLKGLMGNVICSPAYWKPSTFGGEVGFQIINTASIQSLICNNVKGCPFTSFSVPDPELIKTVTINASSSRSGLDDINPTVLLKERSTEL
How it was run: (§1)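 PGE2 production measured by enzyme immunoassay with standards in the same milieu. Inhibition was computed versus control group mean and IC50 estimated by linear regression.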

[3] = target: T2, recombinant human Cox-1 (r-hu Cox1) (Homo sapiens, UniProt P23219); assay: Recombinant human PGHS-1 enzyme assay (RHUCX1); type: biochemical; conditions: for inhibition at 100 µM / inhibition at 10 µM: read-out: RHUCX1 % Inh. at Dose
T2 construct: made in house; host or cells: baculovirus/Sf9 insect cells (microsomes)
T2 sequence (P23219 24-599): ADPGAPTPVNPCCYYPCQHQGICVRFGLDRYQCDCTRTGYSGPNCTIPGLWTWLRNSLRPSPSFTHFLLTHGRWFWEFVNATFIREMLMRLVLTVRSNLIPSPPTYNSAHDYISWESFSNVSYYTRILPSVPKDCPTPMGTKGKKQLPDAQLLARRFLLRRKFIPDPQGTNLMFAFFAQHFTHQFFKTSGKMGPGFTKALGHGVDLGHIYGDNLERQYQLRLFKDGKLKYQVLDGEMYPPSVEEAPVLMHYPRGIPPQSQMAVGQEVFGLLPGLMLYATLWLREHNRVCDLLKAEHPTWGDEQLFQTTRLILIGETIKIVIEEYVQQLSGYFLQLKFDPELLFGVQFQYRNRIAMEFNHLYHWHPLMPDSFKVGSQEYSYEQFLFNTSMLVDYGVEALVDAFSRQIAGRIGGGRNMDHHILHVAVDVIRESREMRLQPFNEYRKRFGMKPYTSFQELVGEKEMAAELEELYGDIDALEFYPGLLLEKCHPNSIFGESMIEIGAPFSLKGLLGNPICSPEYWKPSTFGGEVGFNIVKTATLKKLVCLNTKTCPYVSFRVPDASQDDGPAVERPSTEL
How it was run: as §1

[4] = target: T3, human amnionic whole cell cyclooxygenase-2 (WISH cells) (Homo sapiens, UniProt P35354); assay: IL-1β induced PGE2 production in WISH cells; type: cell-based; conditions: for IC50: read-out: Wish IC50 (parenthetical value)
T3 construct: endogenous in cells; host or cells: human amnionic WISH cells, induced with IL-1beta
T3 sequence (P35354 18-604): T1 sequence (P35354 18-604)
How it was run: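 PGE2 was quantified by enzyme immunoassay (optical density read) against standards made up in the matching medium. WISH cells at 80% confluence, washed and placed in serum-free Neuman-Tytell medium, received 5 ng/ml IL-1β plus test compound or DMSO vehicle (0.01% v/v).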

[5] = target: T4, Human Whole Platelet Cyclooxygenase-1 (Homo sapiens, UniProt P23219); assay: Human Whole Platelet Cyclooxygenase-1 assay (HWPX); type: cell-based; conditions: read-out: HWPX IC50 (parenthetical value)
T4 construct: from tissue; host or cells: human blood: isolated platelets (A4) or heparinised whole blood (A9)
T4 sequence (P23219 24-599): as above
How it was run: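 Thromboxane production was measured with a commercial kit after stimulation of washed human platelets (ACD-anticoagulated volunteer blood) by 8.8 μM final A23187 for 10 min. Test compounds were added 10 min before stimulus; cold 6 mM EDTA terminated the reaction.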

## C=C(C)CCOc1c(-c2ccc(S(C)(=O)=O)cc2)cnn(-c2cccc(Cl)c2)c1=O [Example 427, 2-(3-Chlorophenyl)-4-(3-methyl-3-butenoxy)-5-[4-(methylsulfonyl)phenyl]-3(2H)-pyridazinone]
[1]
  inhibition in vivo at 3 mg/kg: 78%
other
  melting point: 110 to 112 °C

## CC(C)COc1c(-c2ccc(S(C)(=O)=O)c(F)c2)cnn(-c2ccc(F)c(Cl)c2)c1=O [Example 205, 2-(3-Chloro-4-fluorophenyl)-4-(2-methylpropoxy)-5-[3-fluoro-4-(methylsulfonyl)phenyl]-3(2H)-pyridazinone]
[1]
  inhibition in vivo at 3 mg/kg: 54%
other
  melting point: 142 to 144 °C

## COC(C)CCOc1c(-c2ccc(S(C)(=O)=O)cc2)cnn(-c2ccc(F)c(F)c2)c1=O (centres unmarked) [Example 353, 2-(3,4-Difluorophenyl)-4-[3-(methoxy)butoxy]-5-[4-(methylsulfonyl)phenyl]-3(2H)-pyridazinone]
[2]
  IC50: 826 nM
[1]
  inhibition in vivo at 3 mg/kg: 0%
other
  melting point: 99 to 101 °C
[3]; 100 μM
  inhibition at 100 µM: 6%

## CS(=O)(=O)c1ccc(-c2cnn(-c3ccc(F)c(F)c3)c(=O)c2Cc2cccc(F)c2)cc1 [Example 243, 2-(3,4-Difluorophenyl)-4-(3-fluorobenzyl)-5-[4-(methylsulfonyl)phenyl]-3(2H)-pyridazinone]
[1]
  inhibition in vivo at 3 mg/kg: 7%
other
  melting point: 161 to 163 °C
[4]
  IC50: 30 nM

## CC(C)COc1c(-c2ccc(S(C)(=O)=O)cc2)cnn(-c2ccc(F)c(F)c2)c1=O [Example 346, 2-(3,4-Difluorophenyl)-4-(2-methylpropoxy)-5-[4-(methylsulfonyl)phenyl]-3(2H)-pyridazinone]
[2]; 0.01 μM
  inhibition at 0.01 µM: 48%
[2]; 0.1 μM
  inhibition at 0.1 µM: 76%
[2]; 1 μM
  inhibition at 1 µM: 94%
[1]
  inhibition in vivo at 3 mg/kg: 49.5%
other
  melting point: 116 to 117 °C
[3]; 100 μM
  inhibition at 100 µM: 14%

## Cc1cc(-c2c(-c3ccc(S(N)(=O)=O)cc3)cnn(-c3ccc(F)cc3)c2=O)ccc1F [Example 390]
[2]; 0.1 μM
  RHUCX2 % Inh. at Dose (μM): 60 @ 0.1%
[2]; 1 μM
  RHUCX2 % Inh. at Dose (μM): 72 @ 1%
[2]; 10 μM
  RHUCX2 % Inh. at Dose (μM): 99 @ 10%
[1]
  CAP % Inhib. @ 3 mpk: 60%
[3]; 1 μM
  RHUCX1 % Inh. at Dose (μM): 45 @ 1%
[3]; 10 μM
  RHUCX1 % Inh. at Dose (μM): 88 @ 10%

## NS(=O)(=O)c1ccc(-c2cnn(-c3ccc(F)c(F)c3)c(=O)c2Oc2ccc(F)cc2)cc1F [Example 407]
[2]
  IC50: 170 nM
[1]
  inhibition in vivo at 3 mg/kg: 61%
other
  melting point: 224 to 226 °C
[3]; 100 μM
  inhibition at 100 µM: 32%

## C[C@@H](CO)COc1c(-c2ccc(S(N)(=O)=O)cc2)cnn(-c2ccc(F)c(F)c2)c1=O [Example 464, (S)-2-(3,4-Difluorophenyl)-4-(3-hydroxy-2-methyl-1-propoxy)-5-[4-(aminosulfonyl)phenyl]-3(2H)-pyridazinone]
[1]
  inhibition in vivo at 3 mg/kg: 70%

## CC(C)CSc1c(-c2ccc(S(C)(=O)=O)cc2)cnn(-c2cccc(Cl)c2)c1=O [Example 361, 2-(3-Chlorophenyl)-4-[2-(methylpropyl)thiol]-5-[4-(methylsulfonyl)phenyl]-3(2H)-pyridazinone]
[2]
  IC50: 11 nM
[1]
  inhibition in vivo at 3 mg/kg: 65%
[3]; 100 μM
  inhibition at 100 µM: 3%

## CC(C)(O)COc1c(-c2ccc(S(C)(=O)=O)cc2)cnn(-c2ccc(F)c(F)c2)c1=O [Example 452, 2-(3,4-Difluorophenyl)-4-(2-hydroxy-2-methyl-1-propoxy)-5-[4-(methylsulfonyl)phenyl]-3(2H)-pyrridazinone]
[2]; 1 μM
  RHUCX2 % Inh. at Dose (μM): 15 @ 1%
[1]
  CAP % Inhib. @ 3 mpk: 71%
[3]; 100 μM
  RHUCX1 % Inh. at Dose (μM): 14 @ 100%
[4]; 0.1 μM
  Wish % Inhib. at Dose (μM): 1 @ 0.1%
[4]; 1 μM
  Wish % Inhib. at Dose (μM): 56 @ 1%

## CC(C)CCc1c(-c2ccc(S(C)(=O)=O)cc2)cnn(-c2ccc(F)c(Cl)c2)c1=O [Example 257, 2-(3-Chloro-4-fluorophenyl)-4-(3-methylbutyl)-5-[4-(methylsulfonyl)phenyl]-3(2H)-pyridazinone]
[2]
  IC50: 40 nM
[1]
  inhibition in vivo at 3 mg/kg: 60%
other
  melting point: 55 to 58 °C
[3]; 100 μM
  inhibition at 100 µM: 0%

## CC(C)CCc1c(-c2ccc(S(N)(=O)=O)cc2)cnn(-c2ccc(F)c(Cl)c2)c1=O [Example 405, 2-(3-Chloro-4-fluorophenyl)-4-(3-methylbutyl)-5-[4-(aminosulfonyl)phenyl]-3(2H)-pyridazinone]
[2]
  IC50: 198 nM
[1]
  inhibition in vivo at 3 mg/kg: 53%
other
  melting point: 154 to 156 °C
[3]; 10 μM
  inhibition at 10 µM: 61%
[3]; 100 μM
  inhibition at 100 µM: 90%

## CC(C)CCc1c(-c2ccc(S(C)(=O)=O)cc2)cnn(-c2ccc(F)cc2)c1=O [Example 378]
[1]
  CAP % Inhib. @ 3 mpk: 59%

## CS(=O)(=O)c1ccc(-c2cnn(-c3cccc(Cl)c3)c(=O)c2OCCC2CC2)cc1 [Example 419, 2-(3-Chlorophenyl)-4-(2-cyclopropane-1-ethoxy)-5-[4-(methylsulfonyl)phenyl]-3(2H)-pyridazinone]
[2]
  IC50: 100 nM
[1]
  inhibition in vivo at 3 mg/kg: 48%
other
  melting point: 124 to 128 °C
[3]; 100 μM
  inhibition at 100 µM: 12%

## Cc1cc(-c2c(-c3ccc(S(N)(=O)=O)cc3)cnn(-c3cccc(Cl)c3)c2=O)ccc1F [Example 391, 2-(3-Chlorophenyl)-4-(4-fluoro-3-methylphenyl)-5-[4-(aminosulfonpl)phenyl]-3(2h)-pyridazinone]
[1]
  CAP % Inhib. @ 3 mpk: 61%

## CC(C)COc1c(-c2ccc(S(N)(=O)=O)cc2)cnn(-c2cccc(Cl)c2)c1=O [Example 395, 2-(3-Chlorophenyl)-4-(2-methylpropoxy)-5-[4-(aminosulfonyl)phenyl]-3(2H)-pyridazinone]
[2]; 0.01 μM
  inhibition at 0.01 µM: 34%
[2]; 0.1 μM
  inhibition at 0.1 µM: 77%
[2]; 1 μM
  inhibition at 1 µM: 93%
[1]
  inhibition in vivo at 3 mg/kg: 71%
other
  melting point: 80 to 85 °C
[3]; 10 μM
  inhibition at 10 µM: 35%
[3]; 100 μM
  inhibition at 100 µM: 91%

## 2-(2,3,3-Trifluorophenyl)-4-(4-fluorophenyl)-5-[4-(aminosulfonyl)phenyl]-3(2H)-pyridazinone [Example 450]
[2]; 0.01 μM
  RHUCX2 % Inh. at Dose (μM): 22 @ 0.01%
[2]; 0.1 μM
  RHUCX2 % Inh. at Dose (μM): 40 @ 0.1%
[2]; 1 μM
  RHUCX2 % Inh. at Dose (μM): 87 @ 1%
[1]
  CAP % Inhib. @ 3 mpk: 86%
[3]; 100 μM
  RHUCX1 % Inh. at Dose (μM): 29 @ 100%
[4]
  IC50: 50 nM

## CCC(C)CCOc1c(-c2ccc(S(C)(=O)=O)cc2)cnn(-c2ccc(F)c(F)c2)c1=O (centres unmarked) [Example 351, 2-(3,4-Difluorophenyl)-4-(3-methylpentyloxy)-5-[4-(methylsulfonyl)phenyl]-3(2H)-pyridazinone]
[2]; 0.01 μM
  inhibition at 0.01 µM: 42%
[2]; 0.1 μM
  inhibition at 0.1 µM: 63%
[2]; 1 μM
  inhibition at 1 µM: 91%
[1]
  inhibition in vivo at 3 mg/kg: 0%
other
  melting point: 100 to 102 °C
[3]; 100 μM
  inhibition at 100 µM: 3%

## CC(C)(O)COc1c(-c2ccc(S(N)(=O)=O)cc2)cnn(-c2ccc(F)c(F)c2)c1=O [Example 459]
[1]
  CAP % Inhib. @ 3 mpk: 45%

## CC(C)(C)COc1c(-c2ccc(S(C)(=O)=O)cc2)cnn(-c2cccc(Cl)c2)c1=O [Example 338, 2-(3-Chlorophenyl)-4-(2,2-dimethylpropoxy)-5-[4-(methylsulfonyl)phenyl]-3(2H)-pyridazinone]
[2]; 0.1 μM
  inhibition at 0.1 µM: 83%
[2]; 1 μM
  inhibition at 1 µM: 100%
other
  melting point: 151 to 153 °C
[5]
  IC50: 14900 nM
[3]; 100 μM
  inhibition at 100 µM: 0%
[4]
  IC50: 4 nM
